For one series, the system named is TGF-β activation. The conditions noted are these: alveolar macrophages from healthy volunteers, dose and exposure dependent; cited from earlier work.
For series [1] the following is noted: noted by the HAS; cited from earlier work.
The test system of series [2] is BL6 mice sensitised to OVA receiving double-stranded RNA (Poly U/Poly A). The series can be described thus: Whole body plethysmography (PenH) in OVA-sensitised mice given double-stranded RNA poly(A:U). It counts as in vivo, mouse. The procedure:
The inventors used a C57/B16J mouse model, hereafter referred to as BL6.
The protocol simulating a double-stranded RNA viral infection has been performed with 2 groups of 15 mice; these are 8 week old female mice. A control group treated only with saline served as a negative control.
BL6 mice are treated according to the protocol below. BL6 mice have been sensitised by intraperitoneal injections of […] OVA (ovalbumin) on days 0, 2 and 4. Thereafter, from day 10 to day 15, the mice have received a daily treatment with aerosolized OVA at the concentration of 20 mg/ml or saline for 20 min, using an ultrasound nebulizer (Ultra-Neb99). One hour later, the mice received […] of poly (A:U) or saline intranasally.
Group 3 which is sensitised to OVA and also receives double stranded RNA (Poly U/Poly A) according to the protocol described above but also tritoqualine at 10 mg/kg.
Each group is analysed by whole body plethysmography and the measurements are expressed in PenH. A measurement is performed every minute until 10 minutes after the introduction of the double-stranded RNA. Tritoqualine treatment is given 1 hour before the introduction of Poly U/Poly A (double-stranded RNA).
In group 3, which is the group treated with tritoqualine at a dose of 10 mg/kg (mice with viral infection after sensitisation to ovalbumin as well) there are have the following results at time 1 minute to 10 minutes, expressed in PenH units and averaged over 15 mice: […]

Series [3] is described as follows: Light sensitivity of the powder. To be noted: white powder; degrades to Cotarnine and phthalic acid. It counts as physicochemical.
In another series the target is T1, histidine decarboxylase (Homo sapiens, UniProt P19113).
T1 sequence (P19113 1-662): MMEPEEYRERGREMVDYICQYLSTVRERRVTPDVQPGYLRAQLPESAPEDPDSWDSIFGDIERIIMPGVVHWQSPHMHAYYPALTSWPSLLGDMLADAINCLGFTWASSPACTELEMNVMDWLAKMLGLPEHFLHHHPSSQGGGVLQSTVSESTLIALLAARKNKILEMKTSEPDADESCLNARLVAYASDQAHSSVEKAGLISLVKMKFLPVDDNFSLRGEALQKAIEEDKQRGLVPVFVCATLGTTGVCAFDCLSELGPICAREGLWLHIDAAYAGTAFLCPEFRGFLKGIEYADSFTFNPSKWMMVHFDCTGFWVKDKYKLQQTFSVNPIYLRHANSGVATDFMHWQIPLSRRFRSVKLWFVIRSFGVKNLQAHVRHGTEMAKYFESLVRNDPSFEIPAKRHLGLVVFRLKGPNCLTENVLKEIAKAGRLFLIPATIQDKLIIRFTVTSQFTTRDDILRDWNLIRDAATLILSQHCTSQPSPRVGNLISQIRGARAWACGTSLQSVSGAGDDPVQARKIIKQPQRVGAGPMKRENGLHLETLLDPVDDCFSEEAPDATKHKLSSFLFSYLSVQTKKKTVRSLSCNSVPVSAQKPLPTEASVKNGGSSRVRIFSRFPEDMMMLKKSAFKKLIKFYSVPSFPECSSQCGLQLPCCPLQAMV
To be noted: cited from earlier work.

Series [4] has as its system CD63 expression on basophils. The series can be described thus: Flow CAST basophil activation test, anti-FcεRI antibody stimulation, CD63/CCR3 flow cytometry on whole blood. Format: cell-based, human. The source says: To study this modulating action of CD63 by tritoqualine, the inventors have used the basophil and a modified commercial test, the Flow CAST® kit from BULHMANN Laboratories AG (Switzerland), which is a Basophil Activation Test (BAT) that can be used for the in vitro detection of basophil degranulation as well as for the study of immediate type allergic reactions and hypersensitivities.
The test is designed for the in vitro diagnosis of CD63 expression as a surface marker of activated basophils. The test is performed on whole blood; flow cytometry is used to quantify CD63 expression on the surface of activated basophils.
To evaluate degranulation via CD63 expression, the Flow CAST® kit has been partially used. This test includes an anti-IgE receptor. The inventors have only used the latter activator.
These different couplings make it possible to characterise cells separately and in particular basophils. 4 windowing zones will be distinguished according to whether or not CD63 labelling is observed and whether or not CCR3 labelling is observed • CD63+ and CCR3− which characterise non-basophilic degranulated cells. • CD63+ and CCR3+ which characterise degranulated basophils. • CD63− and CCR3− which characterise non-degranulated non-basophilic cells. • CD63− and CCR3+ which characterise non-degranulated basophils.
The degranulation protocol has been carried out using the Flow CAST. […]

The text below walks through data of patent publication US20230201190A1, “USE OF MULTI[…] FOR TREATING THE RESPIRATORY DISTRESS AND CYTOKINE STORM SYNDROMES ASSOCIATED WITH C[…] INFECTIONS” (H4 ORPHAN PHARMA, priority 2020, published 2023).

Regarding `COCCN(CCCCc1ccc2c(n1)NCCC2)CC[C@H](Nc1ncnc2ccccc12)C(=O)O` [PLN-74809], the “inhibition of TGF-β activation” value in the series with TGF-β activation is “up to 70%”.
Turning to `COC(=O)c1ccc2c(c1)NC(=O)/C2=C(\Nc1ccc(N(C)C(=O)CN2CCN(C)CC2)cc1)c1ccccc1` [OFEV, Nintedanib], the side effects in series [1] is roughly 92%.
Consider `CCOc1c(N)c2c(c(OCC)c1OCC)C(C1c3c(cc4c(c3OC)OCO4)CCN1C)OC2=O` (centres unmarked) [tritoqualine, 7-amino-4,5,6-triethoxy-3-(5,6,7,8-tetrahydro-4-methoxy-6-methyl-1,3-dioxolo[4,5-g]isoquinolin-5-yl)phthalide], for which the “difference in airway resistance between tritoqualine group and untreated group (statistical analysis)” value in series [2] (10 mg/kg, p<0.001) is on record as “highly significant”. Further, the “airway resistance, mean of 15 mice” value in series [2] (T1 (1 minute after double-stranded RNA), tritoqualine 10 mg/kg given 1 hour before) came out at 3.05 PenH; in series [2] (T2 (2 minutes), tritoqualine 10 mg/kg) it was 3.11 PenH; in series [2] (T3 (3 minutes), tritoqualine 10 mg/kg) it was 3.13 PenH; in series [2] (T4 (4 minutes), tritoqualine 10 mg/kg) it was 3.97 PenH; in series [2] (T5 (5 minutes), tritoqualine 10 mg/kg), 4.07 PenH; in series [2] (T6 (6 minutes), tritoqualine 10 mg/kg), 4.14 PenH. Besides, the “airway resistance, mean of 15 mice” value stood at 4.02 PenH in series [2] (T7 (7 minutes), tritoqualine 10 mg/kg); 3.85 PenH in series [2] (T8 (8 minutes), tritoqualine 10 mg/kg); 3.14 PenH in series [2] (T9 (9 minutes), tritoqualine 10 mg/kg); 2.74 PenH in series [2] (T10 (10 minutes), tritoqualine 10 mg/kg). Besides, the sensitivity to light entry in series [3] is “very sensitive to light”. Further, the “inhibitory action on histidine decarboxylase” value on histidine decarboxylase was “very weak”. The results for the “cells still expressing CD63” value in series [4] (tritoqualine 5 μmol) and in series [4] (tritoqualine 10 μmol) were “approximately 40%” and “less than 2%”, respectively.
